{
  "source": "patent US20220193016A1",
  "about": "“COMPOSITIONS, METHODS AND USES FOR TARGETING C-TERMINAL BINDING PROTEIN (CtBP) IN [sequence] BRAIN INJURY” (THE REGENTS OF THE UNIVERSITY OF COLORADO, A BODY CORPORATE, priority 2019, published 2022)",
  "key": {"[1]": {"test_system": "repetitive mild TBI (two 0.5 J impacts 24 h apart)", "test": "Repetitive mild TBI in mice (NSS, brain mRNA)", "assay_type": "in vivo, mouse", "method": "In another exemplary experiment, mice (n=4 per group) were subjected to a single mild TBI of 0.5 J dose at 0 h (sTBI) or two doses of 0.5 J mild TBI (rTBI) that were 24 h apart, at 0 h and 24 h. Animals with rTBI were separated into three. groups untreated, intraperitoneally injected with MTOB (860 mg/kg) or NSC95397 (1.5 mg/kg) at 1 h and 18 h. Animals were tested right before the two MTOB injection (0 h and 18 h) and then daily for neurobehavioral preformance. At the end point (72 h), the brain and circulating leukocytes were collected for molecular and immunostaining analyses.\nFIGS. 9A-9D. Administration of MTOB and NSC95397 after a single mild TBI effectively subdues neuroinflammation and improves neurological outcome elicited by a second mild TBI. Mice (n=4 per group) were subjected to a single mild TBI of 0.5 J dose at 0 h (sTBI) or two doses of 0.5 J mild TBI, 24 h apart, at 0 h and 24 h (rTBI). The three rTBI groups were either untreated, treated with MTOB (860 mg/kg) or NSC95397 (1.5 mg/kg) at […] and 18 h. (9A) Neurobehavioral severity scale (NSS) analysis was performed at the indicated time points after the first TBI; the scores were shown as mean+SD. (9B) Bar graphs represent mean±SD of fold changes in mRNA levels in the brain. (9A) Experimental timeline. Mice received a single head impact of 0.5 J energy (1×TBI), or two 0.5 J impacts (2×TBI) spaced 24 h apart. […]"}, "[2]": {"test_system": "imiquimod-induced psoriasis-like skin inflammation", "test": "Imiquimod animal model of psoriasis-like skin inflammation", "assay_type": "in vivo, mice", "conditions": "peptides topically daily from day 3 of imiquimod course; day 7"}, "[3]": {"test_system": "DNFB-induced contact hypersensitivity (CHS)", "test": "DNFB mouse model of contact hypersensitivity", "assay_type": "in vivo", "conditions": "peptides topically on the ear day 6 through day 9", "description": "In another exemplary method, FIG. 14A-14B illustrate the effectiveness of additional CtBP inhibiting peptides in reducing skin inflammation caused by sensitization and elicitation with the hapten 2,4-dinitrofluorobenzene (DNFB). Peptides MH-3, MH-4, MH-6 and MH-7 were derived from MH-2, all containing a polyarginine sequence to promote membrane transduction, with variations at the linker or flanking sequence of the PIDLS motif. […] The thickness of the epidermis of the ear is indicated by the red square bracket. It is noted that the DNFB-induced CHS in mice is an established model for human allergic contact dermatitis, both of which are T cell-mediated delayed hypersensitivity responses. Mice (n=3) were sensitized on day 1 with […] of 0.5% DNFB on the abdomen surface and challenged on day 6 with […] of 0.5% DNFB on both sides of the ears to trigger T memory cell-mediated hypersensitivity reaction. Peptides ([…]) were topically administered on both sides of the ear 1 h after the DNFB application on day 6 through day 9. Ear swelling and reddening were examined daily till the end point (day 9)."}, "[4]": {"test_system": "LPS-activated primary microglia", "test": "LPS-induced expression of CtBP target genes in primary microglia (mRNA)", "assay_type": "cell-based, mouse", "conditions": "for LPS-induced expression of the CtBP-controlled inflammatory genes: primary microglia from neonatal mouse brain, 20 μM peptide 2 h, then 200 ng/mL LPS 2 h, mRNA"}, "[5]": {"test_system": "LPS-activated primary astrocytes", "test": "LPS-induced expression of CtBP target genes in primary astrocytes (mRNA)", "assay_type": "cell-based", "conditions": "primary astrocytes from neonatal mouse brain, data not shown"}, "[6]": {"test_system": "isolated mouse hippocampus", "test": "LPS-induced expression of CtBP target genes in isolated mouse hippocampus", "conditions": "20 mM Pep1-E1As 2 h, then 200 ng/mL LPS 2 h; mRNA, FIG. 6C", "method": "In another exemplary method, a CtBP inhibitor was analyzed for effects on CtBP target gene expression using methods disclosed herein. […] FIG. 6A represents primary microglia that were incubated with 20 μM Pep1-E1As for 2 hours followed by 2 hours of treatment with 200 ng/mL LPS. Bar graphs represent mean±SD of fold changes in mRNA levels. […] FIG. 6C represents isolated mouse hippocampus that were incubated with […] Pep1-E1As for 2 hours followed by 2 hours treatment with 200 ng/mL LPS. Bar graphs represent mean±SD of fold changes in mRNA levels."}, "BV2 cells": {"test_system": "BV2 cells", "test": "Expression of CtBP target genes in LPS-activated BV2 microglia cell line (RT-qPCR)", "assay_type": "cell-based, mouse", "conditions": "siRNA 24 h, then LPS 200 ng/ml 6 h", "method": "In one exemplary method, BV2 cells were treated with CtBP-specific siRNAs 24 hours prior to a 6-hour treatment with LPS. In this example, siCtBP1 (SEQ. NO.1) and siCtBP2 (SEQ. NO.2) were used. Relative mean mRNA levels (±SD) were determined by RT-qPCR, performed in triplicate and in two independent experiments.\n(§1) Murine RAW264.7 (A) and BV2 (B) cells were transfected with siRNAs specific for CtBP1 and CtBP2 or scrambled control siRNAs for a period of 24 h, followed by LPS stimulation (200 ng/ml) for 6 h. Total RNA was extracted and analyzed by the RT-qPCR. Relative mRNA expression was normalized to that of ACTB and depicted as fold changes vs. scrambled siRNA transfected and non-stimulated control (Untreated). Data are presented as mean±SD. n=3; **p<0.01, ***p<0.001. FIG. 2C illustrates LPS-induced binding of CtBP1, CtBP2 and p300 to the IL1β, IL6, TNFα and S100A8 gene promoters. Chromatin fractions from control and LPS-treated BV2 cells were precipitated with antibodies specific to CtBP1, CtBP2 and p300. Bars represent fold changes of relative ChIP signals normalized to the respective controls.\n(§2) In this exemplary study, cells were pretreated with 0.5 or 2.5 mM MTOB for 2 h or 18 h, then with 100 ng/mL LPS for an additional 2 h before being harvested for analysis, using RT-qPCR. Bar graphs represent mean±SD of fold changes in mRNA levels. […]"}, "RAW264.7 cells": {"test_system": "RAW264.7 cells", "test": "Expression of CtBP target genes in LPS-activated RAW264.7 macrophage cell line (RT-qPCR)", "assay_type": "cell-based, mouse", "conditions": "siRNA 24 h, then LPS 200 ng/ml 6 h", "method": "as §1, §2\nIn another exemplary method as illustrated in FIG. 11 relative CtBP1, CtBP2, IL6, S100A8, NRLP3, E-cadherin and Bax mRNA levels in RAW264.7 macrophages stimulated with 100 ng/ml of LPS for 6 h before post-treatment with MTOB for 2 h and at dosages of 0.5 mM and 2.5 mM MTOB sodium salt were analyzed. […]"}},
  "data": [
    {"compound": "O=C1C(SCCO)=C(SCCO)C(=O)c2ccccc21", "note": "[NSC95397, 2,3-Bis[(2-hydroxyethyl)thio]-1,4-naphthoquinone]", "values": [
      {"measurement": "inflammatory gene induction (brain mRNA) after repetitive mild TBI", "setting": "[1]; i.p. MTOB 860 mg/kg or NSC95397 1.5 mg/kg at 1 h and 18 h, 72 h after first injury", "result": "significantly reduced"},
      {"measurement": "neurobehavioral defects (NSS) after repetitive mild TBI", "setting": "[1]; i.p. MTOB 860 mg/kg or NSC95397 1.5 mg/kg at 1 h and 18 h after first injury", "result": "significantly reduced"}
    ]},
    {"compound": "MH-2: SEQ ID NO. 19 RRRRRRRRGGPIDLSKKA (18 aa) (Synthetic Sequence - MH-2)", "values": [
      {"measurement": "imiquimod-induced epidermal proliferation (H&E, epidermis thickness)", "setting": "[2]", "result": "as effective in reducing imiquimod-induced epidermal proliferation as the prototype Pep1-E1A"},
      {"measurement": "epidermal hyperproliferation of the ear", "setting": "[3]", "result": "reducing epidermal hyperproliferation and immunocyte infiltration"},
      {"measurement": "immunocyte infiltration (CD45 immunohistochemistry)", "setting": "[3]", "result": "reducing epidermal hyperproliferation and immunocyte infiltration"}
    ]},
    {"compound": "Pep1-E1AWT: SEQ ID NO. 5 GSHMKETWWETWWTEWSQPKKKRKVLEEPGQPLDLSCKRPRDYKDDDDK; FLAG-tagged Pep1 fusion with wild-type E1A sequence", "values": [
      {"measurement": "LPS-induced expression of the CtBP-controlled inflammatory genes", "setting": "[4]", "result": "inhibited LPS-induced expression"},
      {"measurement": "LPS-induced expression of the CtBP-controlled inflammatory genes", "setting": "[4]; listed as Pep1-E1A", "result": "strongly suppressed"},
      {"measurement": "basal mRNA levels of CDH1 and BAX (genes repressed by CtBPs)", "setting": "[4]; primary microglia, FIG. 6A right panel", "result": "increased the basal mRNA levels"},
      {"measurement": "imiquimod-induced epidermal proliferation (H&E, epidermis thickness)", "setting": "[2]", "result": "reducing imiquimod-induced epidermal proliferation"},
      {"measurement": "LPS-induced expression of the CtBP-controlled inflammatory genes", "setting": "[5]", "result": "inhibited LPS-induced expression"},
      {"measurement": "LPS-induced expression of the CtBP-controlled inflammatory genes", "setting": "[5]; listed as Pep1-E1A", "result": "strongly suppressed"},
      {"measurement": "expression of CtBP target gene in LPS-activated isolated mouse hippocampus", "setting": "[6]", "result": "inhibition of expression of CtBP target gene"}
    ]},
    {"compound": "siRNAs specific for CtBP1 and CtBP2: simultaneous use of mouse siCtBP1 (SEQ. NO.1) and siCtBP2 (SEQ. NO.2) (chain 1 UCUUCCACAGUGUGACUGCGUUAUUUU; chain 2 GCCUUUGGAUUCAGCGUCAUAUUU; listed as RNA, chemistry not given here)", "values": [
      {"measurement": "mRNA expression of proinflammatory genes after knockdown", "setting": "BV2 cells", "result": "suppresses mRNA expression of proinflammatory genes"},
      {"measurement": "mRNA expression of proinflammatory genes after knockdown", "setting": "RAW264.7 cells", "result": "suppresses mRNA expression of proinflammatory genes"}
    ]}
  ]
}
